Experimental data taken from the supplement of paper PMC10307832.

Legend:
Assay in all cases: relative viability (nuclei count vs DMSO), 5 days (fraction); higher = more cells survive
AT9283 + Trametinib = compound: O=C(Nc1c[nH]nc1-c1nc2ccc(CN3CCOCC3)cc2[nH]1)NC1CC1 [AT9283] + CC(=O)Nc1cccc(-n2c(=O)n(C3CC3)c(=O)c3c(Nc4ccc(I)cc4F)n(C)c(=O)c(C)c32)c1 [Trametinib] (partner 0.02 µM)
How it was run: (§1)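 Lung cancer cell lines, seeded in 1536-well plates, were treated the following day by pin tool with a single drug or with five library-drug doses (not always all listed) in √10 steps on top of a fixed anchor-drug dose. Cells were fixed and nuclei stained in one step after 5 days, and nuclei were counted. Relative viability is the nuclei count for treated wells divided by that for vehicle wells, reported as medians of duplicate plates.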

AT9283 + Navitoclax = compound: O=C(Nc1c[nH]nc1-c1nc2ccc(CN3CCOCC3)cc2[nH]1)NC1CC1 [AT9283] + CC1(C)CCC(c2ccc(Cl)cc2)=C(CN2CCN(c3ccc(C(=O)NS(=O)(=O)c4ccc(N[C@H](CCN5CCOCC5)CSc5ccccc5)c(S(=O)(=O)C(F)(F)F)c4)cc3)CC2)C1 [Navitoclax] (partner 0.5 µM)
How it was run: as §1

AT9283 + Foretinib = compound: O=C(Nc1c[nH]nc1-c1nc2ccc(CN3CCOCC3)cc2[nH]1)NC1CC1 [AT9283] + COc1cc2c(Oc3ccc(NC(=O)C4(C(=O)Nc5ccc(F)cc5)CC4)cc3F)ccnc2cc1OCCCN1CCOCC1 [Foretinib] (partner 0.25 µM)
How it was run: as §1

Erlotinib + OSI-027 = compound: C#Cc1cccc(Nc2ncnc3cc(OCCOC)c(OCCOC)cc23)c1 [Erlotinib] + COc1cccc2cc(-c3nc([C@H]4CC[C@H](C(=O)O)CC4)n4ncnc(N)c34)[nH]c12 [OSI-027] (partner 0.5 µM)
How it was run: as §1

Erlotinib + Navitoclax = compound: C#Cc1cccc(Nc2ncnc3cc(OCCOC)c(OCCOC)cc23)c1 [Erlotinib] + CC1(C)CCC(c2ccc(Cl)cc2)=C(CN2CCN(c3ccc(C(=O)NS(=O)(=O)c4ccc(N[C@H](CCN5CCOCC5)CSc5ccccc5)c(S(=O)(=O)C(F)(F)F)c4)cc3)CC2)C1 [Navitoclax] (partner 0.5 µM)
How it was run: as §1

NCI-H441
relative viability (AT9283 + Trametinib; first compound 0.003 µM): 0.259 | relative viability (AT9283 + Trametinib; first compound 0.03 µM): 0.439 | relative viability (AT9283 + Trametinib; first compound 0.09487 µM): 0.423 | relative viability (AT9283 + Trametinib; first compound 0.3 µM): 0.22 | relative viability (AT9283 + Navitoclax; first compound 0.003 µM): 0.432 | relative viability (AT9283 + Navitoclax; first compound 0.03 µM): 0.433 | relative viability (AT9283 + Navitoclax; first compound 0.09487 µM): 0.255 | relative viability (AT9283 + Navitoclax; first compound 0.3 µM): 0.204 | relative viability (AT9283 + Foretinib; first compound 0.003 µM): 1.02 | relative viability (AT9283 + Foretinib; first compound 0.03 µM): 0.847 | relative viability (AT9283 + Foretinib; first compound 0.09487 µM): 0.396 | relative viability (AT9283 + Foretinib; first compound 0.3 µM): 0.301 | relative viability (Erlotinib + OSI-027; first compound 0.02 µM): 0.603 | relative viability (Erlotinib + OSI-027; first compound 0.6325 µM): 0.535 | relative viability (Erlotinib + OSI-027; first compound 2 µM): 0.355 | relative viability (Erlotinib + Navitoclax; first compound 0.02 µM): 1.03 | relative viability (Erlotinib + Navitoclax; first compound 0.2 µM): 0.805 | relative viability (Erlotinib + Navitoclax; first compound 0.6325 µM): 0.555 | relative viability (Erlotinib + Navitoclax; first compound 2 µM): 0.302
